Blank lines part the entries; values can stand above or below the compound they belong to. The source made the active and inactive calls. No cut-off for these calls is given here.
Legend:
[1] = Percent inhibition of growth of human esophageal squamous cell carcinoma cells, KYSE150 cells, at 50 uM concentration (Range=20-40%); assay type: functional; conditions: KYSE-150
[2] = tested on: HT-29; assay: Percent inhibition of growth of human colon adenocarcinoma cells, HT-29 cells, at 50 uM concentration; NE=No effect; assay type: functional, cell-based
[3] = Inhibitory concentration against human esophageal squamous cell carcinoma cells, KYSE150 cells (Range=15-73); assay type: functional
[4] = species on record: Mus musculus; assay: Evaluated to inhibit the release of arachidonic acid and the production of nitric oxide(NO) by lipopolysaccharide (LPS)-stimulated murine macrophages (RAW264.7); assay type: functional, organism-based
[5] = Inhibitory concentration against an immortalized rat intestinal epithelial cell line, IEC-6 cell line (Range=15-73); assay type: functional, cell-based
[6] = tested on: INT-407 (Homo sapiens); assay: Inhibitory concentration against an immortalized human intestinal epithelial cells, INT-407 cells (Range=15-73); conditions: epithelial cell
[7] = tested on: HT-29; assay: Inhibitory concentration against human colon adenocarcinoma cells, HT-29 cells (Range=15-73); assay type: functional, cell-based
[8] = tested on: HCT-116; assay: Inhibitory concentration against human colon adenocarcinoma cells, HCT116 cells (Range=15-73); assay type: functional, cell-based
[9] = species on record: Mus musculus; assay: Evaluated to inhibit the release of arachidonic acid and the production of nitric oxide(NO) by lipopolysaccharide (LPS)-stimulated murine macrophages (RAW264.7); NE=No effect; assay type: functional, organism-based
[10] = tested on: HCT-116; assay: Percent inhibition of growth of human colon adenocarcinoma cells, HCT116 cells; assay type: functional
[11] = tested on: HT-29; assay: Percent inhibition of growth of human colon adenocarcinoma cells, HT-29 cells; assay type: functional
[12] = Percent inhibition of growth of an immortalized rat intestinal epithelial cell line, IEC-6 cell line; assay type: functional
[13] = tested on: INT-407 (Homo sapiens); assay: Percent inhibition of growth of an immortalized human intestinal epithelial cells, INT-407 cells
[14] = Percent inhibition of growth of human esophageal squamous cell carcinoma cells, KYSE150 cells; assay type: functional

SMILES: COc1ccc(CC2CCC(=O)O2)cc1OC (stereo not drawn)
inhibition at 50 µM [1]: 40% | inhibition [2]: inactive

SMILES: COc1ccc(CC2CCC(=O)O2)cc1O (stereo not drawn)
inhibition at 50 µM [1]: 40% | inhibition [2]: inactive

IC50 [3]: 73 µM | IC50 [4]: 20 µM | IC50 [7]: 73 µM | IC50 [8]: 73 µM
SMILES: O=C1CCC(Cc2cc(O)c(O)c(O)c2)O1 (stereo not drawn)
IC50 [5]: 73 µM | IC50 [6]: 73 µM

IC50 [9]: Not Active
SMILES: COc1cc(CC2CCC(=O)O2)cc(OC)c1OC (stereo not drawn)
Inhibition [10]: <20% | Inhibition [11]: <20% | Inhibition [12]: <20% | Inhibition [13]: <20% | Inhibition [14]: <20%

SMILES: O=C1CCC(Cc2ccc(O)c(O)c2)O1 (stereo not drawn)
inhibition at 50 µM [1]: 40% | inhibition [2]: inactive

Source: ChEMBL document CHEMBL1144364, “Synthesis and biological activity of the tea catechin metabolites, M4 and M6 and their methoxy-derivatives” (Bioorg Med Chem Lett, 2005)
